Read-outs that look alike come from different tables or passages of the source.
Columns and labels:
[1] = test system: adhesion of SCD patient RBCs to heme-activated HUVECs; experiment: Endothelialized microfluidic system: SCD patient RBC adhesion to heme-activated HUVECs; type: cell-based, human; details: 6 hours, n=7; for adhesion of RBCs to heme-activated endothelium: treatment of RBCs; for adhesion of SCD patient RBCs to endothelium: treatment of heme-activated HUVECs
Method: Whole blood samples were collected from 7 SCD subjects with HbSS genotype at University Hospitals Cleveland Medical Center, Cleveland, OH, USA. RBCs were isolated after centrifugation of whole blood collected in EDTA and were resuspended in basal cell culture medium (EBM; Lonza, Morristown, NJ, USA) with 10 mM of HEPES to reach 20% hematocrit. Human umbilical vein endothelial cells (HUVECs; Lonza, Morristown, NJ, USA) were seeded within the microfluidic channels and cultured for at least 72 hours at 15 dyne/cm2 prior to experiments. Tested concentrations of 15(S)-HEPE were selected based on clinical pharmacokinetics for 15(S)-HEPE at 2 g/day and 4 g/day Epeleuton doses. Incubation of RBCs or HUVECs with 15(S)-HEPE was conducted at 37° C. for 6 hours. In one experiment 15(S)-HEPE-treated tor vehicle-treated RBCs flowed on untreated HUVECs and in the second experiment untreated RBCs flowed on 15(S)-HEPE-treated or vehicle-treated […]. In both cases a short-term acute activation was conducted where RBCs were supplemented with 40 μM heme and injected through the microfluidic channels for 15 minutes. Non-adherent RBCs were washed with basal cell culture medium. Phase-contrast images of the remaining RBCs were recorded using inverted microscope (DMi8 Leica Microsystems Inc. Deerfield, IL, USA) and the images were analyzed based on previous published methods. Statistical significance was assessed using paired t-test

[2] = test system: TβR-I, TβR-II, TβR-III, EGFR and caveolin-1 in Mv1Lu cells; experiment: Sucrose density gradient analysis of TGF-β receptors in Mv1Lu plasma membranes; type: cell-based, mink
Method: The sucrose gradient fractions were then analyzed by Western blot analysis using anti-TβR-I (type I TGF-β receptor), anti-TβR-II (type II TGF-β receptor), anti-TβR-III (type III TGF-β receptor, betaglycan), anti-EGFR (epidermal growth factor receptor), and anti-caveolin-1 antibodies.
The sucrose gradient fractions were then analyzed by Western blot analysis using anti-TβR-I (type I TGF-β receptor-FIG. 18C), anti-TβR-II (type II TGF-β receptor-FIG. 18D), anti-TβR-III (type III TGF-β receptor, betaglycan-FIG. 18E), anti-EGFR (epidermal growth factor receptor-FIG. 18F), and anti-caveolin-1 antibodies (FIG. 18G).

[3] = test system: TGF-β signaling in HepG2 cells; experiment: TGF-β-induced EMT protein expression and type II TGF-β receptor in HepG2 cells; type: cell-based, human
Method: The effects of 15-HEPE on TGF-β-induced signaling and cellular responses were determined. To test the effect of 15-HEPE on TGF-β-induced signaling, the activities of 15-HEPE to regulate TGF-β-stimulated Smad2 phosphorylation and nuclear translocation, both of which are key signaling events leading to TGF-β-induced cellular responses, were tested. One important biological activity of TGF-β is transcriptional activation of genes responsible for epithelial-mesenchymal transition (EMT), which is a crucial event in wound healing, tissue fibrosis, and cancer progression. The effect of 15-HEPE on TGFβ-induced epithelial mesenchymal transition related proteins (such as fibronectin, PAI-1, and N-cadherin etc.) expression in HepG2 and LXR cells were assessed. HepG2 cells (human hepatoma cell line) were treated in increasing doses of 15-HEPE stage II in DMEM containing 0.1% of FBS for 1 hour and continually stimulated with or without 200 picomolar (pM) of TGF-β for 48 hours. […] HepG2 cells (human hepatoma cell line) were treated in increasing doses of 15-HEPE stage II in DMEM containing 0.1% of FBS for 1 hour and continually stimulated with or without 200 picomolar (pM) of TGF-β for 48 hours. The two panels shown in FIG. 18A are two separate experiments run under the same experimental conditions.

[4] = test system: TGF-β-stimulated intracellular signaling (SMAD2/3 phosphorylation) in LX2 cells; experiment: TGF-β-stimulated SMAD2/3 phosphorylation in LX2 liver stellate cells; type: cell-based, human; details: 0 μM to 100 μM for 24 hours, then 30 min TGF-β stimulation
UUO mice [5] = type: in vivo
Method: UUO Surgery: On day 0 of the study, UUO surgery was performed on mice under pentobarbital sodium anesthesia. The mouse's hair was first shaved and then abdomen cut open to exteriorize the mouse's left ureter. The ureter was ligated 4-0 nylon sutures at two points. The mouse's peritoneum and skin were then closed with sutures, and the mouse transferred to a clean cage until recovered from the anesthesia. Sham operated mice had their left ureter exposed but not ligated. […]
Animals: Seven-week-old female C57BL/6 mice (i.e., animals) were obtained and were housed and fed with a normal diet under controlled conditions. The animals were maintained in a specific-pathogen free (SPF) facility under controlled conditions of temperature (e.g., 23±2° C.), humidity (e.g., 45±10%), lighting (e.g., 12-hour artificial light and dark cycles; light from 8:00 to 20:00) and air exchange. A high pressure was maintained in the experimental room to prevent contamination of the facility. The animals were housed in TPX cages with a maximum of 4 mice per cage. Sterilized Paper-Clean was used for bedding and replaced once a week. Sterilized solid normal diet was provided ad libitum, being placed in a metal lid on the top of the cage. Pure water was also provided ad libitum from a water bottle equipped with a rubber stopper and a sipper tube. Water bottles were replaced once a week, cleaned, and sterilized in an autoclave and reused. Mice were identified by ear punch and each cage was labeled with a specific identification code.
Animal Monitoring and Sacrifice: The viability, clinical signs and behavior for the mice were monitored daily. Individual body weight was measured daily before treatment during the treatment period. […] The animals were sacrificed by exsanguination through direct cardiac puncture under isoflurane anesthesia at Day 14.

UUO mice [6] = experiment: UUO study: Sirius red staining, kidney fibrosis area; type: in vivo
Method: Histopathological analysis: To visualize collagen deposition, kidney sections were stained using picro-Sirius red solution. For quantification of interstitial fibrosis area, bright field images in the corticomedullary region were captured using a digital camera at 200-fold magnification, and the positive areas in 5 fields/section were measured.

[7] = test system: α-SMA, TIMP-1, TGF-β and Collagen Type 1 mRNA; experiment: UUO study: quantitative RT-PCR of kidney; type: in vivo; details: UUO mice kidney, normalized to 36B4, Day 14, mean ± SD
Method: Quantitative RT-PCR: Total ribonucleic acid (RNA) was extracted from kidney samples using RNAiso. One μg of RNA was reverse-transcribed using a reaction mixture containing […] (mM) of magnesium chloride (MgCl2), 40 U RNase inhibitor, 0.5 mM dNTP, 6.28 µM random hexamer, 5× first strand buffer, 10 mM dithiothreitol and 200 U MMLV-RT in a final volume of 20 μL. The reaction was carried out for 1 hour at 37° C., followed by 5 minutes at 99° C. Real-time PCR was performed using real-time PCR DICE and TB Green™ Premix Ex Taq™ II. To calculate the relative […] (mRNA) expression level, the expression of each gene (e.g., α-SMA, TIMP-1, TGF-β and Collagen Type 1) was normalized to that of reference gene 36B4 (gene symbol: Rplp0). Information regarding the PCR-primer sets and the plate layout are described in Tables 1 and 2.

[8] = HepG2 cells, increasing doses, 1 hour, then with or without 200 pM TGF-β for 48 hours
[9] = 5 mg/kg PO QD Day 0-13, Day 14, mean ± SD
[10] = 50 mg/kg PO QD Day 0-13, Day 14, mean ± SD
[11] = 250 mg/kg PO QD Day 0-13, Day 14, mean ± SD

CC/C=C\C[C@H](O)/C=C/C=C\C/C=C\C/C=C\CCCC(=O)O [15(S)-HEPE, 15(S)-hydroxy-(5Z,8Z,11Z,13E,17Z)-eicosapentaenoic acid]
adhesion of RBCs to heme-activated endothelium ([1]; 50 µM, p=0.01): significantly decreased | adhesion of RBCs to heme-activated endothelium ([1]; 100 µM, p=0.001): significantly decreased | adhesion of SCD patient RBCs to endothelium ([1]; 50 μM, p=0.03): significantly decreased | adhesion of SCD patient RBCs to endothelium ([1]; 100 μM, p=0.01): significantly decreased

CC/C=C\CC(O)/C=C/C=C\C/C=C\C/C=C\CCCC(=O)O (stereo not shown) [15-HEPE, 15-hydroxy-eicosa-5Z,8Z,11Z,13E, 17Z-pentaenoic acid]
localization and abundance of TβR-III, EGFR and caveolin-1 ([2]; 100 μM, 0, 1, 4, 24 hours): did not change | abundance of TβR-I proteins ([2]; 100 μM, 37° C., 0, 1, 4, 24 hours): did not affect the abundance | TβR-II degradation ([2]; 100 μM, 24 hours treatment): induce degradation | translocation of TβR-I to lipid-raft ([2]; 100 μM, 24 hours treatment): induced translocation | TβR-II translocation ([2]; 100 μM, from 1 to 4 hours): induced TβR-II translocation | TGF-β induced epithelial mesenchymal transition (EMT) (pro-fibrotic) protein production [3, 8]: blocked | type II TGF-β receptor [3, 8]: induced degradation | TGF-β signaling ([3]; liver cell lines (HepG2, LX2)): directly inhibit | TGF-β-stimulated intracellular signaling (SMAD2/3 phosphorylation) [4]: inhibits

CCCCCC(O)/C=C/C=C\C/C=C\CCCCCCC(=O)O (stereo not shown) [DS109, 15-hydroxy-eicosa-8Z, 11Z, 13E-trienoic acid]
Body Weight (UUO mice [5]; [9]): 19.1 ± 0.9 g | Left Kidney Weight (UUO mice [5]; [9]): 533 ± 138 mg | Left Kidney-to-Body Weight Ratio (UUO mice [5]; [9]): 2.79 ± 0.65% | Right Kidney Weight (UUO mice [5]; [9]): 137 ± 7 mg | Right Kidney-to-Body Weight Ratio (UUO mice [5]; [9]): 0.71 ± 0.04% | Body Weight (UUO mice [5]; [10]): 18.6 ± 0.6 g | Left Kidney Weight (UUO mice [5]; [10]): 523 ± 91 mg | Left Kidney-to-Body Weight Ratio (UUO mice [5]; [10]): 2.83 ± 0.50% | Right Kidney Weight (UUO mice [5]; [10]): 135 ± 6 mg | Right Kidney-to-Body Weight Ratio (UUO mice [5]; [10]): 0.73 ± 0.05% | Body Weight (UUO mice [5]; [11]): 18.6 ± 0.7 g | Left Kidney Weight (UUO mice [5]; [11]): 425 ± 105 mg | Left Kidney-to-Body Weight Ratio (UUO mice [5]; [11]): 2.26 ± 0.53% | Right Kidney Weight (UUO mice [5]; [11]): 130 ± 13 mg | Right Kidney-to-Body Weight Ratio (UUO mice [5]; [11]): 0.70 ± 0.05% | Sirius red-positive area (%)_Median (UUO mice [6]; 5 mg/kg PO QD Day 0-13, Day 14, median): 3.22 ± 1.47% | Sirius red-positive area (%)_Median (UUO mice [6]; 50 mg/kg PO QD Day 0-13, Day 14, median): 3.28 ± 1.41% | Sirius red-positive area (%)_Median (UUO mice [6]; 250 mg/kg PO QD Day 0-13, Day 14, median): 3.76 ± 0.81% | Alpha-SMA mRNA expression level ([7]; 5 mg/kg PO QD Day 0-13): 3.87 ± 0.82 | Collagen Type 1 mRNA expression level ([7]; 5 mg/kg PO QD Day 0-13): 10.76 ± 1.45 | TGF-β mRNA expression level ([7]; 5 mg/kg PO QD Day 0-13): 4.29 ± 0.93 | TIMP-1 mRNA expression level ([7]; 5 mg/kg PO QD Day 0-13): 153.60 ± 37.12 | Alpha-SMA mRNA expression level ([7]; 50 mg/kg PO QD Day 0-13): 4.61 ± 3.15 | Collagen Type 1 mRNA expression level ([7]; 50 mg/kg PO QD Day 0-13): 15.23 ± 11.52 | TGF-β mRNA expression level ([7]; 50 mg/kg PO QD Day 0-13): 6.01 ± 4.77 | TIMP-1 mRNA expression level ([7]; 50 mg/kg PO QD Day 0-13): 167.70 ± 122.60 | Alpha-SMA mRNA expression level ([7]; 250 mg/kg PO QD Day 0-13): 4.85 ± 1.22 | Collagen Type 1 mRNA expression level ([7]; 250 mg/kg PO QD Day 0-13): 13.88 ± 1.91 | TGF-β mRNA expression level ([7]; 250 mg/kg PO QD Day 0-13): 5.48 ± 0.36 | TIMP-1 mRNA expression level ([7]; 250 mg/kg PO QD Day 0-13): 180.90 ± 23.12
